# According to patent US20200131669A1, “CYCLIC PEPTIDE COMPOUND HAVING HIGH MEMBRANE PERMEABILITY, AND LIBRARY CONTAINING SAME” (Chugai Seiyaku Kabushiki Kaisha, priority 2017, published 2020):
# Starred links: 1 amine or outer side, 2 acyl side, 3 side chain; linkers in the order of their positions; H or OH if unused. Positions of bridges follow the written chain, without caps; N, C: chain ends. Non-standard residues stand in square brackets, D forms with d. Residues, ends and D or L forms follow the SMILES beside them. ξ: configuration not given here. *: point of attachment. X7 = CC(C(=O)[C@H](Cc1ccccc1)N(C)[*:1])[C@@H](Cc1ccccc1)C(=O)[*:2]; Phe(4-CF3) = N[C@@H](Cc1ccc(C(F)(F)F)cc1)C(=O)O; NMePhe(3-Cl) = CN[C@@H](Cc1cccc(Cl)c1)C(=O)O; X16 = O=C(C1CCCCC1)[C@H](CC(=O)[*:2])N[*:1]; Ala(4-thiazolyl) = N[C@@H](Cc1cscn1)C(=O)O; Tyr(3-F) = N[C@@H](Cc1ccc(O)c(F)c1)C(=O)O; NMehPhe = CN[C@@H](CCc1ccccc1)C(=O)O; X3 = O=C([C@H](CCCCO)N[*:1])[*:2]; Gly(N-(CH2)2OEt) = CCOCCNCC(=O)O; Hyp = O=C(O)[C@@H]1C[C@@H](O)CN1; NMeF = CN[C@@H](Cc1ccccc1)C(=O)O; NMeGABA = CN(CCCC(=O)[*:2])[*:1]; NMeI = CC[C@H](C)[C@H](NC)C(=O)O; hPhe = N[C@@H](CCc1ccccc1)C(=O)O; 4Pal = N[C@@H](Cc1ccncc1)C(=O)O; NMeD = CN[C@@H](CC(=O)O)C(=O)O; NMeL = CN[C@@H](CC(C)C)C(=O)O; NMeV = CN[C@H](C(=O)O)C(C)C; NMeA = CN[C@@H](C)C(=O)O; Piperidide = C1CCN(*)CC1; dNMeA = CN[C@H](C)C(=O)O; CH2CMe2OH = CC(C)(O)C*; Me2NCH2CH2 = CN(C)CC*; NBuGly = CCCCNCC(=O)O; NPrGly = CCCNCC(=O)O; Bn = c1ccc(C*)cc1; ξS = NC(CO)C(=O)O; Sar = CNCC(=O)O; tBu = CC(C)(C)*
# Experiment: Caco-2 membrane permeability, improved method as used in the following Examples (96-well, 20 to 24 h preincubation)
# Type: in vitro ADME
# Conditions: human, Caco-2, Caco-2
# Procedure, shortened: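 Papp (cm/sec) was derived from LC/MS of basal samples collected 180 min after apical dosing in FaSSIF/HBSS pH 6.0 with 1% DMSO, against a basal HBSS pH 7.4 receiver containing 4% BSA. Three-week Caco-2 cultures were first preincubated with compound in DMEM+FaSSIF at 37 °C for 20–24 h.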
row,SMILES,Papp A→B at 180 min
1,CCCN1CC(=O)N(C)[C@@H](CC(C)C)C(=O)N[C@H](C(=O)N2CCCCC2)CC(=O)N(C)[C@@H](C)C(=O)N[C@@H](CC(C)C)C(=O)N(C)[C@@H](CC(C)C)C(=O)N(C)[C@@H](Cc2ccccc2)C(=O)N[C@@H](COCC(C)(C)O)C(=O)N(C)[C@@H](Cc2ccccc2)C(=O)N(C)[C@@H]([C@@H](C)CC)C(=O)N[C@@H]([C@@H](C)O)C1=O [pd429] ([NMeA]L[NMeL][NMeF]S(CH2CMe2OH)[NMeF][NMeI]T[NPrGly][NMeL]D-Piperidide; lactam N-11),3.3 ×10⁻⁶ cm/s
2,CCOCCN1CC(=O)N(C)[C@@H](Cc2ccccc2)C(=O)N(C)[C@@H](CC(C)C)C(=O)N[C@@H](COC(C)(C)C)C(=O)N(C)[C@@H](CC(C)C)C(=O)N[C@H](C(=O)N2CCCCC2)CC(=O)N(C)CC(=O)N(C)[C@@H](Cc2ccccc2)C(=O)N[C@@H](C(C)C)C(=O)N(C)[C@@H](CC(C)C)C(=O)N[C@@H]([C@@H](C)O)C1=O [pd418] ([Sar][NMeF]V[NMeL]T[Gly(N-(CH2)2OEt)][NMeF][NMeL]S(tBu)[NMeL]D-Piperidide; lactam N-11),1.5 ×10⁻⁶ cm/s
3,CC(C)C[C@@H]1NC(=O)[C@H](Cc2ccccc2)N(C)C(=O)[C@@H](C(C)C)NC(=O)C[C@@H](C(=O)N2CCCCC2)NC(=O)[C@H](C(C)C)N(C)C(=O)[C@H](Cc2ccccc2)N(C)C(=O)[C@H](COC(C)(C)C)NC(=O)[C@H](CC(C)C)N(C)C(=O)CN(C)C(=O)[C@H](CCCCO)NC(=O)[C@H](CC(C)C)N(C)C1=O [pd450] ([dV][NMeF]L[NMeL][X3][Sar][NMeL]S(tBu)[NMeF][NMeV]D-Piperidide; lactam N-11),1.8 ×10⁻⁶ cm/s
4,CC[C@H](C)[C@@H]1NC(=O)[C@H](Cc2ccccc2)N(C)C(=O)CN(C)C(=O)C[C@@H](C(=O)N2CCCCC2)NC(=O)[C@H]([C@@H](C)CC)N(C)C(=O)C(COCc2ccccc2)NC(=O)[C@H](CC(C)C)N(C)C(=O)[C@H](Cc2ccccc2)N(C)C(=O)CN(C)C(=O)[C@H]([C@@H](C)O)NC(=O)[C@H](CC(C)C)N(C)C1=O (stereo partly drawn) [pd370] ([Sar][NMeF]I[NMeL]T[Sar][NMeF][NMeL][ξS](Bn)[NMeI]D-Piperidide; lactam N-11),2.5 ×10⁻⁶ cm/s
5,CCO[C@@H]1C[C@H]2C(=O)N(C)[C@@H](CC(C)C)C(=O)N[C@@H](COC(C)(C)C)C(=O)N3CCC[C@H]3C(=O)N[C@@H]([C@@H](C)O)C(=O)N(C)[C@@H](CC(C)C)C(=O)N(C)[C@@H](CC(C)C)C(=O)N(C)[C@@H](CC(C)C)C(=O)N[C@H](C(=O)N3CCCCC3)CC(=O)N[C@H](CC(C)C)C(=O)N(C)[C@@H]([C@@H](C)CC)C(=O)N2C1 [pd384] ([dL][NMeI][Hyp](Et)[NMeL]S(tBu)PT[NMeL][NMeL][NMeL]D-Piperidide; lactam N-11),3.3 ×10⁻⁶ cm/s
6,CCCCN1CC(=O)N(C)[C@@H](CC(C)C)C(=O)N[C@@H](COC(C)(C)C)C(=O)N(C)[C@@H](Cc2ccccc2)C(=O)N(C)[C@@H](C(C)C)C(=O)N[C@H](C(=O)N2CCCCC2)CC(=O)N[C@H](C(C)C)C(=O)N(C)[C@@H](Cc2ccccc2)C(=O)N[C@@H](COCCN(C)C)C(=O)N(C)[C@@H](CC(C)C)C(=O)N[C@@H]([C@@H](C)O)C1=O [pd53] ([dV][NMeF]S(Me2NCH2CH2)[NMeL]T[NBuGly][NMeL]S(tBu)[NMeF][NMeV]D-Piperidide; lactam N-11),0.14 ×10⁻⁶ cm/s

# Same assay, conditions: human, Caco-2, Caco-2 (cm/sec)
row,SMILES,Papp A→B at 180 min
1,CC(C)C[C@@H]1NC(=O)CN(C)C(=O)[C@H](Cc2ccccc2)N(C)C(=O)[C@@H](C)NC(=O)C[C@@H](C(=O)N2CCCCC2)NC(=O)[C@H](Cc2ccccc2)N(C)C(=O)[C@H](Cc2ccccc2)N(C)C(=O)[C@H](COC(C)(C)C)NC(=O)[C@H](CC(C)C)N(C)C(=O)[C@H](Cc2ccccc2)NC(=O)[C@H]([C@@H](C)O)NC1=O [pd246] ([dA][NMeF][Sar]LTF[NMeL]S(tBu)[NMeF][NMeF]D-Piperidide; lactam N-11),0.014 ×10⁻⁶ cm/s
2,CC[C@H](C)[C@@H]1NC(=O)[C@H](CC(C)C)N(C)C(=O)CCCN(C)C(=O)C[C@@H](C(=O)C2CCCCC2)NC(=O)[C@H](CC(C)C)N(C)C(=O)[C@H](C)N(C)C(=O)[C@H](Cc2ccncc2)NC(=O)[C@H](CC(C)C)N(C)C(=O)[C@H](COC(C)(C)C)NC(=O)[C@H](Cc2cccc(Cl)c2)N(C)C(=O)[C@H](CC(C)C)N(C)C1=O [pd170] (cyclo([4Pal][NMeA][NMeL][X16][NMeGABA][NMeL]I[NMeL][NMePhe(3-Cl)]S(tBu)[NMeL])),1.6 ×10⁻⁶ cm/s
3,CC(C)C[C@H]1C(=O)N[C@@H](COC(C)(C)C)C(=O)N(C)[C@@H](Cc2ccccc2)C(=O)N(C)[C@@H](CC(C)C)C(=O)N(C)[C@H](C(=O)N2CCCCC2)CC(=O)N(C)[C@@H](C)C(=O)N(C)[C@@H](Cc2cccc(Cl)c2)C(=O)N[C@@H](C(C)C)C(=O)N(C)[C@@H](C(C)C)C(=O)N[C@@H]([C@@H](C)O)C(=O)N(C)CC(=O)N1C [pd169] ([NMeA][NMePhe(3-Cl)]V[NMeV]T[Sar][NMeL]S(tBu)[NMeF][NMeL][NMeD]-Piperidide; lactam N-11),3.8 ×10⁻⁶ cm/s
4,CC(C)C[C@H]1C(=O)N(C)[C@@H](C)C(=O)N(C)[C@@H](Cc2ccccc2)C(=O)N[C@@H]([C@@H](C)O)C(=O)N(C)[C@@H](CC(C)C)C(=O)N[C@@H](Cc2ccc(C(F)(F)F)cc2)C(=O)N2CCC[C@H]2C(=O)N[C@H](C(=O)N2CCCCC2)CC(=O)N1C [pd135] ([NMeL][NMeA][NMeF]T[NMeL][Phe(4-CF3)]PD-Piperidide; lactam N-8),1.3 ×10⁻⁶ cm/s
5,CC(C)C[C@@H]1NC(=O)[C@H](CC(C)C)N(C)C(=O)[C@H](CC(C)C)N(C)C(=O)CNC(=O)[C@H](Cc2ccccc2)N(C)C(=O)[C@H](Cc2cscn2)NC(=O)[C@H](CC(C)C)N(C)C(=O)[C@H](Cc2ccccc2)NC(=O)[C@H](C)NC(=O)C[C@@H](C(=O)N(C)[C@@H](Cc2ccccc2)C(=O)N[C@@H](C)C(=O)N2CCCCC2)NC1=O [pd235] (AF[NMeL][Ala(4-thiazolyl)][NMeF]G[NMeL][NMeL]LD[NMeF]A-Piperidide; lactam N-10),0.1 ×10⁻⁶ cm/s
6,CC(C)C[C@H]1C(=O)N[C@@H](COC(C)(C)C)C(=O)N[C@@H]([C@@H](C)O)C(=O)N(C)[C@@H](Cc2ccccc2)C(=O)N[C@H](C(=O)N2CCCCC2)CC(=O)N[C@@H](C)C(=O)N(C)[C@@H](Cc2ccccc2)C(=O)N(C)[C@@H](C)C(=O)N(C)[C@@H](Cc2ccccc2)C(=O)N(C)[C@@H](CC(C)C)C(=O)N[C@@H](Cc2ccccc2)C(=O)N1C [pd237] (A[NMeF][NMeA][NMeF][NMeL]F[NMeL]S(tBu)T[NMeF]D-Piperidide; lactam N-11),0.089 ×10⁻⁶ cm/s
7,CC(C)C[C@@H]1NC(=O)[C@H](CC(C)C)N(C)C(=O)[C@@H](C)NC(=O)C[C@@H](C(=O)N2CCCCC2)N(C)C(=O)[C@H](CC(C)C)N(C)C(=O)[C@H]([C@@H](C)O)NC(=O)[C@H](CC(C)C)N(C)C(=O)[C@H](Cc2ccc(C(F)(F)F)cc2)NC1=O [pd149] ([dA][NMeL]L[Phe(4-CF3)][NMeL]T[NMeL][NMeD]-Piperidide; lactam N-8),1.7 ×10⁻⁶ cm/s
8,CC(C)C[C@H]1C(=O)N(C)[C@@H](CCc2ccccc2)C(=O)N[C@@H](COC(C)(C)C)C(=O)N(C)[C@@H](C)C(=O)N[C@H](C(=O)N2CCCCC2)CC(=O)N(C)[C@@H](C)C(=O)N(C)[C@@H](Cc2ccccc2)C(=O)N[C@@H](CCc2ccccc2)C(=O)N(C)[C@@H](CC(C)C)C(=O)N[C@@H]([C@@H](C)O)C(=O)N(C)CC(=O)N1C [pd184] ([NMeA][NMeF][hPhe][NMeL]T[Sar][NMeL][NMehPhe]S(tBu)[NMeA]D-Piperidide; lactam N-11),1.2 ×10⁻⁶ cm/s
9,CC(C)C[C@@H]1NC(=O)[C@H](Cc2ccccc2)N(C)C(=O)[C@H](CC(C)C)N(C)C(=O)[C@@H](C)N(C)C(=O)C[C@@H](C(=O)N2CCCCC2)NC(=O)[C@H](CC(C)C)N(C)C(=O)[C@H](Cc2ccccc2)N(C)C(=O)[C@H]([C@@H](C)O)NC(=O)[C@H](Cc2ccccc2)N(C)C1=O [pd223] ([dNMeA][NMeL][NMeF]L[NMeF]T[NMeF][NMeL]D-Piperidide; lactam N-9),1.1 ×10⁻⁶ cm/s
10,CC(C)C[C@@H]1NC(=O)[C@H](Cc2ccccc2)N(C)C(=O)[C@@H](C)N(C)C(=O)C[C@@H](C(=O)N2CCCCC2)N(C)C(=O)[C@H](Cc2ccccc2)N(C)C(=O)[C@H](Cc2ccccc2)N(C)C(=O)[C@H](COC(C)(C)C)NC(=O)[C@H](C(C)C)N(C)C(=O)CN(C)C(=O)[C@H]([C@@H](C)O)NC(=O)[C@H](CC(C)C)N(C)C1=O [pd199] ([dNMeA][NMeF]L[NMeL]T[Sar][NMeV]S(tBu)[NMeF][NMeF][NMeD]-Piperidide; lactam N-11),2.6 ×10⁻⁶ cm/s
11,CC(C)C[C@@H]1NC(=O)[C@H](CC(C)C)N(C)C(=O)[C@H](C)N(C)C(=O)[C@@H](C(C)C)NC(=O)C[C@@H](C(=O)N2CCCCC2)NC(=O)[C@H]([C@@H](C)O)NC(=O)[C@H](C)N(C)C(=O)[C@H](C)N(C)C(=O)[C@H](CC(C)C)N(C)C(=O)[C@H](Cc2ccc(O)c(F)c2)NC(=O)[C@H](Cc2ccccc2)N(C)C1=O [pd113] ([dV][NMeA][NMeL]L[NMeF][Tyr(3-F)][NMeL][NMeA][NMeA]TD-Piperidide; lactam N-11),0.029 ×10⁻⁶ cm/s

# Same assay, conditions: human, Caco-2, Papp; Table 23-1, sequences where ARC = 3; read-out: Caco-2
row,SMILES,Papp A→B at 180 min
1,CC(C)C[C@@H]1NC(=O)[C@H](Cc2ccccc2)N(C)C(=O)[C@@H]2CCCN2C(=O)C[C@@H](C(=O)N2CCCCC2)N(C)C(=O)[C@H](Cc2ccccc2)C(C)C(=O)[C@H](Cc2ccccc2)N(C)C(=O)[C@H](COC(C)(C)C)NC(=O)[C@H](C(C)C)N(C)C(=O)CN(C)C(=O)[C@H]([C@@H](C)O)NC(=O)[C@H](CC(C)C)N(C)C1=O (stereo partly drawn) [pd196] (P[NMeF]L[NMeL]T[Sar][NMeV]S(tBu)[X7][NMeD]-Piperidide; lactam N-10),4 ×10⁻⁶ cm/s
